Legend:
Assay type in all cases: cell-based
[1] = tested on: multi-resistant Staphylococcus aureus 575; assay: paper diffusion method drug sensitivity test, MRSA-575; details: for Zone of Inhibition: MRSA-575, 30 μg/tablet paper disc (6.35 mm), LB plate, 37° C., 24 h; for inhibitory effect (in words): multi-drug resistant Staphylococcus aureus 575, 30 μg/tablet
Method: (§1) The antimicrobial efficacy was determined by a paper diffusion method drug sensitivity test.
(§2) Experimental strains: multi-resistant Staphylococcus aureus 171, multi-resistant Staphylococcus aureus 575, multi-resistant Staphylococcus aureus 596. The experimental strain was identified by Huashan Hospital, Fudan University (Institute of Antibiotic of Fudan University).
(§3) Drug sensitive paper: The drug sensitive paper was a special drug sensitive paper with a diameter of 6.35 mm and a water absorption of 0.02 mL. The control drug was vancomycin (30 μg/tablet); the test drugs were pleuromutilin (30 μg/tablet), hippuric acid (30 μg/tablet) and pleuromutilin hippuric acid ester (30 μg/tablet).
(§4) Reagents: LB agar medium, LA broth medium, 0.5% DMSO solution.
(§5) The experimental strains were inoculated in non-selective medium and placed in air at 37° C. for 24 h. A single colony that grows well and inoculate it into broth medium was incubate at 35° C.±2° C. for 6 hours, and LA broth medium was used to calibrate the concentration of the bacterial solution to 0.5 Mie turbidimetric tube (1.5×10^8 CFU/mL). A bacterial suspension was obtained.
(§6) LB dry powder was weighed, sterilized at 103.4 Kpa, 121.3° C. high-pressure steam for 15 min, and then placed it in a 40° C.-50° C. water bath. A sterile empty plate (inner diameter 9 cm) was placed on the surface of the ultra-clean table water table, and […] was poured to the plate. The thickness of each plate was 3 mm to 4 mm. After the plate was cooled at room temperature, it was stored in the refrigerator at 2° C.-8° C. A sterile cotton swab was used to dip the bacterial solution and ti evenly coat the surface of the LB plate 3 times. After inoculation of the bacterial suspension, the LB plate was dried at room temperature for 3 min to 5 min. Sterile forceps were used to closely attach the antibacterial drug paper to the dish. The dish was put upside down and placed in a 37° C. incubator for 24 h. The results were observed by measuring the diameter. Taking 0.5% DMSO solution as a negative control, the antibacterial activity is expressed by the diameter of the inhibition zone. The inhibition zone ≥17 mm, sensitive; the inhibition zone of 15 mm-16 mm, intermediary; the inhibition zone ≤14 mm, drug resistance.

[2] = tested on: multi-resistant Staphylococcus aureus 171; assay: paper diffusion method drug sensitivity test, MRSA-171; details: for Zone of Inhibition: MRSA-171, 30 μg/tablet paper disc (6.35 mm), LB plate, 37° C., 24 h; for inhibitory effect (in words): multi-drug resistant Staphylococcus aureus 171, 30 μg/tablet
Method: as §1, §2, §3, §4, §5, §6

[3] = tested on: multi-resistant Staphylococcus aureus 596; assay: paper diffusion method drug sensitivity test, MRSA-596; details: for Zone of Inhibition: MRSA-596, 30 μg/tablet paper disc (6.35 mm), LB plate, 37° C., 24 h; for inhibitory effect (in words): multi-drug resistant Staphylococcus aureus 596, 30 μg/tablet
Method: as §1, §2, §3, §4, §5, §6

Structure (SMILES) | Zone of Inhibition [1] [mm] | inhibitory effect (in words) [1] | Zone of Inhibition [2] [mm] | inhibitory effect (in words) [2] | Zone of Inhibition [3] [mm] | inhibitory effect (in words) [3]
O=C(O)CNC(=O)c1ccccc1 [Hippuric acid] | 0 | no inhibitory effect | 0 | no inhibitory effect | 0 | no inhibitory effect
C=C[C@]1(C)C[C@@H](OC(=O)COC(=O)CNC(=O)c2ccccc2)[C@]2(C)CC[C@@H](C)[C@@]3(CCC(=O)[C@@H]23)[C@@H](C)[C@@H]1O [Pleuromutilin hippuric acid ester, (3aS,4R,5S,6S,8R,9R,9aR,12R)-5-hydroxy-4,6,9,12-tetramethyl-1-oxo-6-vinyldecahydro-3a,9-propanocyclopenta[8]annulen-8-yl 2-(2-benzamidoacetoxy)acetate] | 15 | strong inhibitory effects | 14 | strong inhibitory effects | 25 | strong inhibitory effects
C=C[C@]1(C)C[C@@H](OC(=O)CO)[C@]2(C)[C@H](C)CC[C@]3(CCC(=O)[C@H]32)[C@@H](C)[C@@H]1O [Pleuromutilin] | 0 | no inhibitory effect | 0 | no inhibitory effect | 0 | no inhibitory effect
CN[C@H](CC(C)C)C(=O)N[C@H]1C(=O)N[C@@H](CC(N)=O)C(=O)N[C@H]2C(=O)N[C@H]3C(=O)N[C@H](C(=O)N[C@H](C(=O)O)c4cc(O)cc(O)c4-c4cc3ccc4O)[C@H](O)c3ccc(c(Cl)c3)Oc3cc2cc(c3O[C@@H]2O[C@H](CO)[C@@H](O)[C@H](O)[C@H]2O[C@H]2C[C@](C)(N)[C@H](O)[C@H](C)O2)Oc2ccc(cc2Cl)[C@H]1O [Vancomycin] | 17 | – | 15 | – | 23 | –
